Measurements reported in the supplement of paper PMC10307832.

Columns and labels:
Test in all cases: relative viability (nuclei count vs DMSO), 5 days (fraction); higher = more cells survive
[1] = compound: c1ccc2c(CCNc3ccc(Nc4ccncc4)cc3)c[nH]c2c1 [Serdemetan] + COc1cc2c(Oc3ccc(NC(=O)C4(C(=O)Nc5ccc(F)cc5)CC4)cc3F)ccnc2cc1OCCCN1CCOCC1 [Foretinib] (partner 0.25 µM)
Method in brief: (§1)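 Relative viability equals treated-well nuclei counts divided by vehicle-well nuclei counts. Counts came from 4× images of lung cancer cell lines grown in 1536-well plates for 5 days after pin-tool dosing on the day after seeding. Dosing used one drug alone or a fixed anchor-drug dose plus five library-drug doses (not always all listed) in √10 steps, and values are medians of duplicate plates.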

[2] = compound: c1ccc2c(CCNc3ccc(Nc4ccncc4)cc3)c[nH]c2c1 [Serdemetan] + CS(=O)(=O)N1CCN(Cc2cc3nc(-c4cccc5[nH]ncc45)nc(N4CCOCC4)c3s2)CC1 [Pictilisib] (partner 1 µM)
Method in brief: as §1

[3] = compound: C1CC(C2=C(C1)C3=C(N2)C=CC(=C3)Cl)C(=O)N [Selisistat]
Method in brief: (§2)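 MetaXpress counted nuclei in 4× images of lung cancer cell lines that had been fixed, permeabilised and Hoechst-stained in one step. Before that, cells in 1536-well plates were kept overnight at 37 °C, pinned with five √10-spaced library-drug doses on vehicle-anchored plates, and cultured 5 days without medium change. Viability takes treated-well nuclei over vehicle-well nuclei and uses the median across plates. Plates were accepted only at control CV below 25% and at least one doubling.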

[4] = compound: c1ccc2c(CCNc3ccc(Nc4ccncc4)cc3)c[nH]c2c1 [Serdemetan]
Method in brief: as §2

Cell Line: UMC-11
- relative viability ([1]; first compound 0.04 µM): 0.919
- relative viability ([1]; first compound 0.1265 µM): 1.02
- relative viability ([1]; first compound 4 µM): 0.828
- relative viability ([2]; first compound 0.04 µM): 0.813
- relative viability ([2]; first compound 0.1265 µM): 0.866
- relative viability ([2]; first compound 0.4 µM): 0.824
- relative viability ([2]; first compound 1.265 µM): 0.47
- relative viability ([2]; first compound 4 µM): 0.737
- relative viability ([3]; 0.4 µM): 1
- relative viability ([3]; 1.265 µM): 0.962
- relative viability ([3]; 4 µM): 0.883
- relative viability ([3]; 12.65 µM): 0.978
- relative viability ([3]; 40 µM): 1.06
- relative viability ([4]; 0.04 µM): 0.935
- relative viability ([4]; 0.1265 µM): 1.01
- relative viability ([4]; 0.4 µM): 0.902
- relative viability ([4]; 1.265 µM): 0.661
- relative viability ([4]; 4 µM): 0.924
